Results reported in patent publication US20110217297A1, “METHODS FOR CLASSIFYING AND TREATING BREAST CANCERS” (priority 2010, published 2011).
Entries after “also recorded” stand apart in the source; their conditions may differ.

Experiments:
[1] = system: tumors; details: TNP-470 below maximum tolerated dose plus cyclophosphamide 170 mg/kg, every 6 days, in combination; cited from earlier work
[2] = system: breast cancer molecular subtypes I-VI; test: Metastasis-free and overall survival of breast cancer patients treated with CMF or CAF adjuvant chemotherapy, compared in each molecular subtype (log-rank test); type: in vivo, human; details: for sensitivity / response of the breast cancer subtype to the drug or regimen: molecular subtype IV breast cancer, inferred from CMF vs CAF survival
Excerpt: Patients who had been diagnosed, treated and followed for breast cancer progression between 1991 and 2003 at the Koo Foundation Sun Yat-Sen Cancer Center (KFSYSCC), and had their fresh breast cancer tissue frozen in liquid nitrogen at the institutional tumor bank were identified. […] The study was approved by the institutional review board. Samples deposited in the tumor bank were randomly selected. A total of 447 cases were available. Samples of insufficient RNA (n=1), poor RNA quality (n=116) or unacceptable microarray quality (n=18) were excluded from the study, leaving 312 random samples available (Cohort-1). Gene expression profiles of 15 additional lobular carcinomas of breast collected between 1999 and 2004 were also included in the study (Cohort 2). Thus, the total number of samples was 327.
All statistical analyses were conducted using SAS/STAT software (ver. 9.1.3) (SAS Institute, Inc.) and R software package (v2.6) from Bioconductor. Fisher's exact test was conducted to determine statistical correlation between molecular subtypes and various clinical phenotypes. The exact p values were estimated by Monte Carlo simulation. Log-rank test was used to analyze survival differences between different molecular subtypes or treatment groups.
The breast cancer samples used in this study were collected over a period of more than 10 years. The period covered a major shift of chemotherapy regimen from CMF (cyclophosphamide-methotrexate-fluorouracil) therapy to CAF (cyclophosphamide-adriamycin-fluorouracil) therapy around 1997 and 1998. The cohorts in this study offered a precious opportunity to investigate how different molecular subtypes of breast cancer responded differently to this change of adjuvant chemotherapy regimen.
Metastasis-free and overall survival were compared for patients treated with CMF and CAF for adjuvant therapy in each molecular subtype. […] Nevertheless, the CAF group had more N stage=1 patients and the CMF group had more N stage=0 patients (Table 15b).

| SMILES | tumor response to the treatment regimen [1] | treatment results (metastasis-free and overall survival), CAF vs CMF adjuvant chemotherapy ([2]; molecular subtype IV breast cancer patients, adjuvant chemotherapy after surgery) | sensitivity / response of the breast cancer subtype to the drug or regimen [2] |
| --- | --- | --- | --- |
| CO[C@@H]1[C@H](OC(=O)NC(=O)CCl)CC[C@]2(CO2)[C@H]1[C@@]1(C)O[C@@H]1CC=C(C)C [TNP-470] | complete regression |  |  |
| COc1cccc2c1C(=O)c1c(O)c3c(c(O)c1C2=O)C[C@@](O)(C(=O)CO)C[C@@H]3O[C@H]1C[C@H](N)[C@H](O)[C@H](C)O1 [adriamycin, doxorubicin] |  | dramatic impact; also recorded: significantly improved | very sensitive |
| O=P1(N(CCCl)CCCl)NCCCO1 (centres unmarked) [cyclophosphamide] | complete regression |  |  |
| CN(Cc1cnc2nc(N)nc(N)c2n1)c1ccc(C(=O)N[C@@H](CCC(=O)O)C(=O)O)cc1 [methotrexate] |  |  | relatively insensitive |
